Results: ChEMBL document CHEMBL5131389, “PSMA-targeted small-molecule docetaxel conjugate: Synthesis and preclinical evaluation” (Eur J Med Chem, 2022)
Active and inactive are the calls of the source. The rule behind the calls is not given here.

What was measured:
CWR22R [1] = experiment: Cytotoxicity against human 22Rv1 cells assessed as reduction in cell viability measured after 72 hrs by MTT assay; assay type: functional
PC-3 = experiment: Induction of ROS generation in human PC-3 cells at 800 mV holding potential measured after 1 hr by patch clamp amplifier based optical inverted microscopic analysis; assay type: functional, cell-based
CWR22R [2] = experiment: Effect on cell stiffness in human 22Rv1 cells assessed as increase in young's modulus at 2.7 nM measured after 1 hr by topography based scanning ion-conductance microscopic analysis; assay type: functional
[3] = Stability of the compound in pH 7.4 buffer measured upto 96 hrs by LC-MS based mass spectrometric analysis; assay type: physicochemical; settings: pH 7.4, 96 h
CWR22R [4] = experiment: Antitumor activity against human 22Rv1 cells xenografted in Balb/c nude mouse assessed as tumor growth inhibition at 20 mg/kg, ip administered once in two days for three times and measured 1 day after the end of treatment relative to control; assay type: functional; settings: 22Rv1, 168 h, time 7 day, read-out: TGI
CWR22R [5] = experiment: Antitumor activity against human 22Rv1 cells xenografted in Balb/c nude mouse assessed as tumor growth inhibition at 20 mg/kg, ip administered once in two days for three times and measured 7 days after the end of treatment relative to control; assay type: functional; settings: 22Rv1, 312 h, time 13 day, read-out: TGI
[6] = Toxicity in Balb/c nude mouse xenografted with human 22Rv1 cells assessed as animal death at 10 mg/kg, ip measured upto 30 days; assay type: organism-based, CWR22R; settings: in vivo, 720 h, time < 30 day
DU-145 = experiment: Antitumor activity against human DU-145 cells xenografted in BALB/c nude mouse assessed as tumor growth inhibition at 60 mg/kg, ip measured upto 30 days; assay type: functional; settings: DU-145, 720 h, time <= 30 day, read-out: TGI
[7] = Toxicity in BALB/c nude mouse xenografted with human DU-145 cells assessed as animal death at 30 to 60 mg/kg, ip measured upto 30 days; assay type: organism-based; settings: in vivo, 720 h, dose 30-60 mg/kg, time < 30 day
[8] = Acute toxicity in ICR mouse assessed as decrease in body weight administered intravenously as pluronic F127 formulation and measured for 14 days; settings: in vivo, iv, 336 h, dose 183-960 mg/kg, time 14 day
[9] = Acute toxicity in ICR mouse assessed as kidney lesion at 183 to 960 mg/kg, iv administered as pluronic F127 formulation and measured for 14 days; assay type: organism-based; settings: in vivo, 336 h, dose 183-960 mg/kg, time 14 day
[10] = Acute toxicity in Wistar rat assessed as kidney lesion at 15 to 279 mg/kg, iv administered as pluronic F127 formulation and measured for 14 days; assay type: organism-based; settings: in vivo, 336 h, dose 15-279 mg/kg, time 14 day
[11] = Acute toxicity in ICR mouse assessed as hypertrophied adrenal gland at 183 to 960 mg/kg, iv administered as pluronic F127 formulation and measured for 14 days; assay type: organism-based; settings: in vivo, 336 h, dose 183-960 mg/kg, time 14 day
[12] = Acute toxicity in Wistar rat assessed as hypertrophied adrenal gland at 15 to 279 mg/kg, iv administered as pluronic F127 formulation and measured for 14 days; assay type: organism-based; settings: in vivo, 336 h, dose 15-279 mg/kg, time 14 day
[13] = AUC (0 to t) in Albino Wistar rat at 15 mg/kg, iv administered as pluronic F127 formulation measured upto 72 hrs by high-performance liquid chromatography tandem mass spectrometric analysis; assay type: ADME, organism-based; set-up: dose 15 mg/kg, time < 72 hrs, route iv; settings: in vivo
[14] = AUC (0 to infinity) in Soviet Chinchilla rabbit at 8.1 mg/kg, iv administered as pluronic F127 formulation measured upto 72 hrs by high-performance liquid chromatography tandem mass spectrometric analysis; assay type: ADME, organism-based, Oryctolagus cuniculus; set-up: dose 8.1 mg/kg, time < 72 hrs, route iv; settings: in vivo
[15] = AUC (0 to infinity) in Albino Wistar rat at 15 mg/kg, iv administered as pluronic F127 formulation measured upto 72 hrs by high-performance liquid chromatography tandem mass spectrometric analysis; assay type: ADME, organism-based; set-up: dose 15 mg/kg, time < 72 hrs, route iv; settings: in vivo
[16] = Ratio of AUC (t to infinity) to AUC (0 to infinity) in Soviet Chinchilla rabbit at 8.1 mg/kg, iv administered as pluronic F127 formulation measured upto 72 hrs by high-performance liquid chromatography tandem mass spectrometric analysis; assay type: ADME, organism-based, Oryctolagus cuniculus; settings: in vivo
[17] = Half-life in Soviet Chinchilla rabbit at 8.1 mg/kg, iv administered as pluronic F127 formulation measured upto 72 hrs by high-performance liquid chromatography tandem mass spectrometric analysis; assay type: ADME, organism-based, Oryctolagus cuniculus; settings: in vivo
[18] = Clearance in Soviet Chinchilla rabbit at 8.1 mg/kg, iv administered as pluronic F127 formulation measured upto 72 hrs by high-performance liquid chromatography tandem mass spectrometric analysis; assay type: ADME, organism-based, Oryctolagus cuniculus; settings: in vivo
[19] = Clearance in Albino Wistar rat at 15 mg/kg, iv administered as pluronic F127 formulation measured upto 72 hrs by high-performance liquid chromatography tandem mass spectrometric analysis; assay type: ADME, organism-based; settings: in vivo
[20] = Subchronic toxicity in Wistar rat assessed as decrease in body weight at 58 mg/kg, iv administered as pluronic F127 formulation daily for 28 days; assay type: organism-based; settings: in vivo, 672 h, time 28 day
[21] = Chronic toxicity in rat assessed as reduction in number of crossed squares at 22.5 mg/kg, iv administered as pluronic F127 formulation at 4 intervals for 21 days and observed 3 weeks post last injection; assay type: organism-based; settings: in vivo, 2544 h, time 106 day
[22] = Chronic toxicity in rat assessed as reduction in number of peeping into holes at 22.5 mg/kg, iv administered as pluronic F127 formulation at 4 intervals for 21 days and observed 3 weeks post last injection; assay type: organism-based; settings: in vivo, 2544 h, time 106 day
[23] = Chronic toxicity in rat assessed as hair loss at 22.5 mg/kg, iv administered as pluronic F127 formulation at 4 intervals for 21 days and observed 3 weeks post last injection; assay type: organism-based; settings: in vivo, 2544 h, time 106 day
[24] = Chronic toxicity in rat assessed as hair loss at 15 to 18.45 mg/kg, iv administered as pluronic F127 formulation at 4 intervals for 21 days and observed 3 weeks post last injection; assay type: organism-based; settings: in vivo, 2544 h, dose 15-18.45 mg/kg, time 106 day
[25] = Chronic toxicity in rat assessed as neurological disorder at 15 to […] mg/kg, iv administered as pluronic F127 formulation at 4 intervals for 21 days and observed 3 weeks post last injection; assay type: organism-based; settings: in vivo, 2544 h, dose lower 15 mg/kg, time 106 day
[26] = Chronic toxicity in rat assessed as change in alkaline phosphatase level at 18.75 to 22.5 mg/kg, iv administered as pluronic F127 formulation at 4 intervals for 21 days and observed 3 weeks post last injection; assay type: organism-based; settings: in vivo, 2544 h, dose 18.75-22.5 mg/kg, time 106 day
[27] = Chronic toxicity in rat assessed as increase in relative brain mass administered intravenously as pluronic F127 formulation at 4 intervals for 21 days and observed 3 weeks post last injection relative to control; assay type: tissue-based; settings: in vivo, iv, 2544 h, time 106 day
[28] = Chronic toxicity in Soviet Chinchilla rabbit assessed as urine alkalization at 10.17 to 12.21 mg/kg, iv administered as pluronic F127 formulation at 4 intervals for 21 days and observed 3 weeks post last injection; assay type: organism-based, Oryctolagus cuniculus; settings: in vivo, 2544 h, dose 10.17-12.21 mg/kg, time 106 day
[29] = Chronic toxicity in Soviet Chinchilla rabbit assessed as increase in body weight at 12.21 mg/kg, iv administered as pluronic F127 formulation at 4 intervals for 21 days and observed 3 weeks post last injection relative to control; assay type: organism-based, Oryctolagus cuniculus; settings: in vivo, 2544 h, time 106 day

## CC(=O)O[C@@]12CO[C@@H]1C[C@H](O)[C@@]1(C)C(=O)[C@H](O)C3=C(C)[C@@H](OC(=O)[C@H](OC(=O)CCCc4cn(CCCNC(=O)[C@H](Cc5ccc(O)cc5)NC(=O)[C@H](Cc5ccccc5)NC(=O)CCC(=O)NCCCCCC(=O)N(CCCC[C@H](NC(=O)N[C@@H](CCC(=O)O)C(=O)O)C(=O)O)Cc5cccc(Cl)c5)nn4)[C@@H](NC(=O)OC(C)(C)C)c4ccccc4)C[C@@](O)([C@@H](OC(=O)c4ccccc4)[C@H]21)C3(C)C
CWR22R [1]
  CC50: 2.7 nM
PC-3
  Activity: Active
CWR22R [2]
  Activity: Active
[3]
  Stability: Unstable
CWR22R [4]
  inhibition in vivo at 20 mg/kg: 78%
CWR22R [5]
  inhibition in vivo at 20 mg/kg: 85%
[6]
  Activity: Non-Toxic
DU-145
  inhibition in vivo at 60 mg/kg: 83.7%
[7]
  Activity: Non-Toxic
[8]
  Activity: Toxic
[9]
  Activity: Toxic
[10]
  Activity: Toxic
[11]
  Activity: Toxic
[12]
  Activity: Toxic
[13]
  AUC(0-t) at 72 h: 28000 ng·h/mL
[14]
  AUC(0-inf): 289000 ng·h/mL
[15]
  AUC(0-inf): 34000 ng·h/mL
[16]
  Ratio AUC: 12%
[17]
  half-life: 8.1 h
[18]
  clearance: 0.483 mL/min/kg
[19]
  clearance: 9.15 mL/min/kg
[20]
  Activity: Toxic
[21]
  Activity: Toxic
[22]
  Activity: Toxic
[23]
  Activity: Toxic
[24]
  Activity: Non-Toxic
[25]
  Activity: Non-Toxic
[26]
  Activity: Non-Toxic
[27]
  Activity: Toxic
[28]
  Activity: Toxic
[29]
  Activity: Toxic
